The values that follow come from patent publication US11197479B2, “Use of silthiofam for the treatment of soybean rust” (priority 2018, dated 2021).

Several values for one entry are separate records, joined by “and”; a condition that tells them apart may be missing. Equal values may be shown once.

For this test, the system named is Phakopsora pachyrhizi. Description: Glasshouse pot trial: efficacy on soybean rust on soybean (Glycine max), visual estimation of degree of infection on leaves. The class given is in vivo. The protocol:
In the tables presented below, the following terms have the following meaning:
Glasshouse pot trials were conducted to evaluate the effect and efficacy of silthiofam on soybean rust disease on soybean (Glycine max).
The trial was divided in 11 treatments. In 4 of the treatments, silthiofam was applied in different amounts.
Silthiofam compositions used in this trial were prepared from the suspension concentrate containing 125 g/L of silthiofam, diluted with water to predetermined concentration and sprayed on the plants in the predetermined amounts.
In two of the treatments, silthiofam was applied in combination with additional ingredients.
First combination was of silthiofam and chitosan, wherein silthiofam was applied in an amount of 250 g/ha on the plant first and chitosan was applied subsequently in an amount of 200 g/ha.
Second combination was a combination of silthiofam and tagatose, wherein silthiofam was applied in an amount of 250 g/ha simultaneously with tagatose in an amount of 200 g/ha.
Further 6 treatments were current market available treatments of soybean rust applied in the label prescribed dose, wherein the compositions used were prepared from commercially available products prepared according to the respective label instructions and sprayed on the plants.
One treatment of the trial consisted of fungi inoculated plants which received no treatment.
Soybean plants were treated two times with silthiofam and other treatments. First treatment was applied when soybean plants reached stage BBCH16 and the second treatment was applied when soybean plants reached stage BBCH61. Growth stages were defined according to Compendium of Growth Stage Identification Keys for Mono- and Dicotyledonous Plants, Extended BBCH scale, 2nd Edition 1997, ISBN 3-9520749-3-4.
After silthiofam and other treatments were applied first time, plants were inoculated with Phakopsora pachyrhizi spores and evaluation of leaves condition and disease spread was done every 7 days.
Method used for evaluation of disease spread was visual estimation of degree of infection on leaves.
The experimental design of the pot trial was randomized design with 4 pot replications per treatment applied, wherein six soybean plants were planted per pot.
Treatments were the following:
Treatment 1: Plant inoculated with P. pachyrhizi, no treatment applied
Treatment 2: Treatment with flutriafol and azoxystrobin mixture, applied in concentration of 31.25 g flutriafol/ha and 37.5 g azoxystrobin/ha
Treatment 3: Silthiofam treatment applied in 250 g silthiofam/ha
Treatment 4: Silthiofam treatment applied in 500 g silthiofam/ha
Treatment 5: Silthiofam treatment applied in 250 g silthiofam/ha and 200 g/ha of tagatose
Treatment 6: Silthiofam treatment applied in 250 g silthiofam/ha and 200 g/ha of chitosan
Treatment 7: Mancozeb applied in 1.68 kg mancozeb/ha
Treatment 8: Chlorothalonil applied in 626.4 g chlorothalonil/ha
Treatment 9: Azoxystrobin applied in 37.5 g azoxystrobin/ha
Treatment 10: Boscalid applied in 294 g boscalid/ha
Treatment 11: Prothioconazole and tebuconazole mixture applied as 42 g prothioconazole/ha and 84 g tebuconazole/ha

On to `CO/C=C(/C(=O)OC)c1ccccc1Oc1cc(Oc2ccccc2C#N)ncn1` [Azoxystrobin], for which the “% efficacy” value is 64.3% and 72.8% and 67.8% and 77.8% (azoxystrobin 37.5 g/ha, 7/7 d after first/last application, 19 d after planting, LEALOW); 73.4% and 88.9% and 81.9% and 100.0% (azoxystrobin 37.5 g/ha, 7/7 d after first/last application, 19 d after planting, LEAMID); 100.0% (azoxystrobin 37.5 g/ha, 7/7 d after first/last application, 19 d after planting, LEAUPP); 85.0% and 79.0% and 84.1% and 80.6% (azoxystrobin 37.5 g/ha, 14/14 d after first/last application, 26 d after planting, LEALOW); 92.0% and 94.5% and 90.0% and 89.4% (azoxystrobin 37.5 g/ha, 14/14 d after first/last application, 26 d after planting, LEAMID); 98.6% and 90.8% and 98.7% (azoxystrobin 37.5 g/ha, 14/14 d after first/last application, 26 d after planting, LEAUPP). The “% efficacy” value was 72.0% and 65.0% and 59.0% and 60.0% (azoxystrobin 37.5 g/ha, 21/21 d after first/last application, 33 d after planting, LEALOW); 82.0% and 79.0% and 90.0% and 78.0% (azoxystrobin 37.5 g/ha, 21/21 d after first/last application, 33 d after planting, LEAMID); 100.0% (azoxystrobin 37.5 g/ha, 21/21 d after first/last application, 33 d after planting, LEAUPP); 54.0% and 67.0% and 65.0% and 62.0% (azoxystrobin 37.5 g/ha, 28/7 d after first/last application, 40 d after planting, LEALOW); 82.0% and 85.0% and 88.0% (azoxystrobin 37.5 g/ha, 28/7 d after first/last application, 40 d after planting, LEAMID); 100.0% (azoxystrobin 37.5 g/ha, 28/7 d after first/last application, 40 d after planting, LEAUPP). For the same compound, the “% efficacy” value runs as follows: (azoxystrobin 37.5 g/ha, 35/14 d after first/last application, 47 d after planting, LEAMID) 85.0% and 88.0% and 82.0%; (azoxystrobin 37.5 g/ha, 35/14 d after first/last application, 47 d after planting, LEAUPP) 100.0% and 98.9%; (azoxystrobin 37.5 g/ha, 42/21 d after first/last application, 54 d after planting, LEAMID) 52.0% and 62.0% and 56.0% and 58.0%; (azoxystrobin 37.5 g/ha, 42/21 d after first/last application, 54 d after planting, LEAUPP) 82.0% and 85.0% and 86.0%.

On to `O=C(Nc1ccccc1-c1ccc(Cl)cc1)c1cccnc1Cl` [Boscalid], for which the “% efficacy” value is 85.8% and 86.4% and 93.6% and 100.0% (boscalid 294 g/ha, 7/7 d after first/last application, 19 d after planting, LEALOW); 100.0% (boscalid 294 g/ha, 7/7 d after first/last application, 19 d after planting, LEAMID); 100.0% (boscalid 294 g/ha, 7/7 d after first/last application, 19 d after planting, LEAUPP); 76.0% and 80.0% and 78.0% (boscalid 294 g/ha, 14/14 d after first/last application, 26 d after planting, LEALOW); 90.0% and 86.8% and 88.0% and 85.1% (boscalid 294 g/ha, 14/14 d after first/last application, 26 d after planting, LEAMID); 98.6% and 92.6% and 98.7% (boscalid 294 g/ha, 14/14 d after first/last application, 26 d after planting, LEAUPP). In addition, the “% efficacy” value by setting is: (boscalid 294 g/ha, 21/21 d after first/last application, 33 d after planting, LEALOW) 55.0% and 42.0% and 38.0% and 35.0%; (boscalid 294 g/ha, 21/21 d after first/last application, 33 d after planting, LEAMID) 56.0% and 49.0% and 55.0% and 52.0%; (boscalid 294 g/ha, 21/21 d after first/last application, 33 d after planting, LEAUPP) 91.9% and 88.9% and 89.4% and 92.9%; (boscalid 294 g/ha, 28/7 d after first/last application, 40 d after planting, LEALOW) 49.0% and 52.0% and 51.0% and 44.0%; (boscalid 294 g/ha, 28/7 d after first/last application, 40 d after planting, LEAMID) 44.0% and 48.0% and 56.0% and 52.0%; (boscalid 294 g/ha, 28/7 d after first/last application, 40 d after planting, LEAUPP) 85.9% and 100.0% and 93.1% and 85.7%. Besides, the “% efficacy” value is, setting by setting: (boscalid 294 g/ha, 35/14 d after first/last application, 47 d after planting, LEAMID) 35.0% and 42.0% and 48.0% and 43.0%; (boscalid 294 g/ha, 35/14 d after first/last application, 47 d after planting, LEAUPP) 83.6% and 82.0% and 77.3% and 82.2%; (boscalid 294 g/ha, 42/21 d after first/last application, 54 d after planting, LEAUPP) 75.0% and 67.0% and 64.0% and 72.0%.

As to `N#Cc1c(Cl)c(Cl)c(Cl)c(C#N)c1Cl` [Chlorothalonil], the “% efficacy” value runs as follows: (chlorothalonil 626.4 g/ha, 7/7 d after first/last application, 19 d after planting, LEALOW) 35.8% and 65.9% and 54.9% and 50.0%; (chlorothalonil 626.4 g/ha, 7/7 d after first/last application, 19 d after planting, LEAUPP) 100.0%; (chlorothalonil 626.4 g/ha, 14/14 d after first/last application, 26 d after planting, LEALOW) 75.0% and 69.0% and 68.1% and 59.2%; (chlorothalonil 626.4 g/ha, 14/14 d after first/last application, 26 d after planting, LEAMID) 85.0% and 80.2% and 79.0% and 67.1%; (chlorothalonil 626.4 g/ha, 14/14 d after first/last application, 26 d after planting, LEAUPP) 88.3% and 81.5% and 78.9% and 80.0%; (chlorothalonil 626.4 g/ha, 21/21 d after first/last application, 33 d after planting, LEALOW) 55.0% and 40.0% and 44.0% and 45.0%. Besides, the “% efficacy” value (chlorothalonil 626.4 g/ha, 21/21 d after first/last application, 33 d after planting, LEAMID) is 72.0% and 70.0% and 65.0% and 62.0%; the “% efficacy” value (chlorothalonil 626.4 g/ha, 21/21 d after first/last application, 33 d after planting, LEAUPP) is 82.3% and 80.6% and 72.0% and 64.3%; the “% efficacy” value (chlorothalonil 626.4 g/ha, 28/7 d after first/last application, 40 d after planting, LEALOW) was 22.0% and 34.0% and 32.0% and 26.0%; the “% efficacy” value (chlorothalonil 626.4 g/ha, 28/7 d after first/last application, 40 d after planting, LEAMID) was 56.0% and 52.0% and 55.0% and 54.0%; the “% efficacy” value (chlorothalonil 626.4 g/ha, 28/7 d after first/last application, 40 d after planting, LEAUPP) is 74.4% and 70.6% and 70.9% and 76.7%; the “% efficacy” value (chlorothalonil 626.4 g/ha, 35/14 d after first/last application, 47 d after planting, LEAMID) is 52.0% and 44.0% and 48.0% and 42.0%. Further, the “% efficacy” value is 63.8% and 69.0% and 68.0% (chlorothalonil 626.4 g/ha, 35/14 d after first/last application, 47 d after planting, LEAUPP); 52.0% and 45.0% and 42.0% and 48.0% (chlorothalonil 626.4 g/ha, 42/21 d after first/last application, 54 d after planting, LEAUPP).

Take Mancozeb: the “% efficacy” value by setting is: (mancozeb 1.68 kg/ha, 7/7 d after first/last application, 19 d after planting, LEALOW) 50.0% and 65.9% and 64.6% and 61.2%; (mancozeb 1.68 kg/ha, 7/7 d after first/last application, 19 d after planting, LEAMID) 46.7% and 72.3% and 54.6% and 50.0%; (mancozeb 1.68 kg/ha, 7/7 d after first/last application, 19 d after planting, LEAUPP) 100.0%; (mancozeb 1.68 kg/ha, 14/14 d after first/last application, 26 d after planting, LEALOW) 67.0% and 75.0% and 56.4% and 64.3%; (mancozeb 1.68 kg/ha, 14/14 d after first/last application, 26 d after planting, LEAMID) 82.0% and 78.0% and 73.5%; (mancozeb 1.68 kg/ha, 14/14 d after first/last application, 26 d after planting, LEAUPP) 83.8% and 72.3% and 85.9% and 76.0%. Also, the “% efficacy” value (mancozeb 1.68 kg/ha, 21/21 d after first/last application, 33 d after planting, LEALOW) is 42.0% and 38.0% and 52.0% and 48.0%; the “% efficacy” value (mancozeb 1.68 kg/ha, 21/21 d after first/last application, 33 d after planting, LEAMID) is 66.0% and 62.0% and 59.0% and 60.0%; the “% efficacy” value (mancozeb 1.68 kg/ha, 21/21 d after first/last application, 33 d after planting, LEAUPP) was 71.0% and 72.3% and 66.7% and 60.0%; the “% efficacy” value (mancozeb 1.68 kg/ha, 28/7 d after first/last application, 40 d after planting, LEALOW) was 28.0% and 35.0% and 32.0% and 25.0%; the “% efficacy” value (mancozeb 1.68 kg/ha, 28/7 d after first/last application, 40 d after planting, LEAMID) is 62.0% and 56.0% and 54.0% and 49.0%; the “% efficacy” value (mancozeb 1.68 kg/ha, 28/7 d after first/last application, 40 d after planting, LEAUPP) is 82.1% and 74.2% and 73.7% and 68.9%. In addition, the “% efficacy” value is 48.0% and 36.0% and 32.0% and 43.0% (mancozeb 1.68 kg/ha, 35/14 d after first/last application, 47 d after planting, LEAMID); 72.6% and 67.0% and 59.0% and 54.8% (mancozeb 1.68 kg/ha, 35/14 d after first/last application, 47 d after planting, LEAUPP); 54.0% and 43.0% and 52.0% and 38.0% (mancozeb 1.68 kg/ha, 42/21 d after first/last application, 54 d after planting, LEAUPP).
